According to paper PMC9268168, “Novel Nitric Oxide Donor Dinitroazetidine-Coumarin Hybrids as Potent Anti-Intrahepatic Cholangiocarcinoma Agents” (Molecules, 2022):

Assays:
[1] = tested on: RBE cell lines; assay: cells; conditions: Homo sapiens, 48 h, read-out: IC50, antiproliferation activities in RBE
[2] = tested on: RBE cells; assay: Intracellular NO measurement with fluorescent probe DAF-FM DA (flow cytometry); assay type: cell-based, human; conditions: 2 μM, 2.5 h; for MFI (fold of RRx-001), intracellular NO: DAF-FM DA
Procedure: Intracellular NO was measured with 3-amino,4-aminomethyl-2′,7′-diflfluorescein, diacetate (DAF-FM DA, Beyotime, Shanghai, China). In detail, RBE cells in the logarithmic growth phase were collected and spread on 6-well plate at a density of 150,000 per well overnight. The adherent cells were pretreated with 5 μM DAF-FM DA at 37 °C for 20 min and then incubated with RRx-001, compounds 2–6 and 21 for 2.5 h, followed by flow cytometer analysis (BD Accuri C6, Shanghai, China). Cells were washed three times with cold PBS between each step. The experiment was performed three times.

[3] = tested on: Cyclin B1, PARP and Caspase-3 in RBE cell lines; assay: Western blot analysis of cell-cycle- and apoptosis-related proteins; assay type: cell-based, human; conditions: 1 and 4 μM
Procedure: Approximately 2 × 10^5 cells of RBE were seeded in 6-well plates. After treated with compound 3 (1 and 4 μM) for 24 h, cells were lysed with ice-cold RIPA lysis buffer (Beyotime, Shanghai, China) for 30 min and then centrifuged at 12,000 rpm for 10 min at 4 °C. The total protein concentration was determined by BCA protein assay kit (Beyotime, Shanghai, China). Equal amounts (20 μg per load) of protein samples were subjected to 12% SDS-PAGE gel and transferred onto polyvinylidene fluoride (PVDF) membranes (Epizyme Biotech, Shanghai, China), which were then blocked with 5% bovine serum albumin (Ebsdorfelgrund, Hesse, Germany) for 1.5 h and reacted with primary antibodies (1: 1000 diluted) at 4 °C overnight. Subsequently, the PVDF membranes were incubated in the secondary antibody (1: 10,000 diluted) for 2 h at room temperature. ECL chemiluminescent solution was used for color rendering. The antibodies against Cyclin B1, Caspase 3, and PARP were purchased from Cell Signaling Technology. The secondary antibodies conjugated with horseradish peroxidase (HRP) were from AoWei Biology and CST. The protein bands were developed by the chemiluminescent reagents (Meilunbio, Shanghai, China).

[4] = tested on: RBE cell lines; assay: Cell cycle analysis (PI staining, flow cytometry); assay type: cell-based, human; conditions: 1 μM
Procedure: The experimental cells RBE were cultured and collected when the cells were in good growth state. After digesting with 0.25% trypsin (Beyotime), the cells were collected and centrifuged. The cells were inoculated in petri dishes (Φ = 6 cm) with an inoculation density of 500,000 cells per dish and 3 mL medium per dish. The cells were placed in the incubator, changed to serum-free RPMI 1640 medium after 12 h, left to continue to culture for 12 h, and then compounds were added. Compounds groups with the concentration of 1 μM and control group treated with DMSO were set. The original culture medium was removed, and the compounds were added. After incubation for 16h, the cells were collected and centrifuged at 1000 r for 5 min. The cells were rinsed twice with PBS, and the supernatant was removed by centrifugation. 75% ethanol (1 mL) was added and placed in a refrigerator at −20 °C overnight for cell fixation.
The fixed cells were centrifuged at 2000 r for 5 min, the supernatant was discarded, 1 mL of PBS solution was added, and the supernatant was resuspended and discarded. 0.5 mL of PI staining solution was added to each tube (staining buffer: 20 × PI staining solution: 50 × RNase A = 100:5:2) and stored at room temperature for 30 min in the dark for testing on the flow cytometry.

melting point	Structure (SMILES)	IC50 [1]	MFI (fold of RRx-001), intracellular NO [2]	other results
78.5 to 79.6 °C	Cc1cc(=O)oc2cc(OCCCN3CC([N+](=O)[O-])([N+](=O)[O-])C3)ccc12	–	–	–
113.3 to 115.1 °C	Cc1c(Cc2ccc(F)cc2)c(=O)oc2cc(OCCCCN3CC([N+](=O)[O-])([N+](=O)[O-])C3)ccc12	–	–	–
137.9 to 139.2 °C	Cc1c(Cc2ccc(F)cc2)c(=O)oc2cc(OCCN3CC([N+](=O)[O-])([N+](=O)[O-])C3)ccc12	–	–	–
135.1 to 136.3 °C	Cc1c(Cc2ccc(C#N)cc2)c(=O)oc2cc(OCCCCN3CC([N+](=O)[O-])([N+](=O)[O-])C3)ccc12	–	–	–
122.5 to 124.1 °C	Cc1c(Cc2ccc(C#N)cc2)c(=O)oc2cc(OCCN3CC([N+](=O)[O-])([N+](=O)[O-])C3)ccc12	–	–	–
173 to 175 °C	Cc1c(Cc2ccccc2)c(=O)oc2cc(OCCN3CC([N+](=O)[O-])([N+](=O)[O-])C3)ccc12	–	–	–
115.1 to 116.8 °C	Cc1c(Cc2ccccc2)c(=O)oc2cc(OCCCN3CC([N+](=O)[O-])([N+](=O)[O-])C3)ccc12	–	–	–
98 to 99.8 °C	Cc1c(Cc2ccc(C(F)(F)F)cc2)c(=O)oc2cc(OCCN3CC([N+](=O)[O-])([N+](=O)[O-])C3)ccc12	–	–	–

More lines, now with the values behind:

Structure (SMILES)	melting point	IC50 [1]	MFI (fold of RRx-001), intracellular NO [2]	other results
Cc1cc(=O)oc2cc(OCCCCN3CC([N+](=O)[O-])([N+](=O)[O-])C3)ccc12 [Compound 21, 7-(4-(3,3-Dinitroazetidin-1-yl)butoxy)-4-methyl-2H-chromen-2-one]	85.8 to 87.2 °C	1090 nM	1.13 fold of RRx-001	–
Cc1c(Cc2ccc(C#N)cc2)c(=O)oc2cc(OCCOCC(=O)N3CC([N+](=O)[O-])([N+](=O)[O-])C3)ccc12 [Compound 3, 4-((7-(2-(2-(3,3-Dinitroazetidin-1-yl)-2-oxoethoxy)ethoxy)-4-methyl-2-oxo-2H-chromen-3-yl)methyl)benzonitrile]	74.9 to 76.3 °C	950 nM	1.36 fold of RRx-001	expression of PARP, Caspase-3 and Cyclin B1 (Western blotting) [3]: downregulated; cell cycle effect (in words) [4]: arrest the cell cycle at G2/M phase; mean percentage of cells in the G2/M phase ([4]; DMSO control 18%): 23%; NO release level in RBE cells (in words) ([2]; compared to RRx-001): highest NO release concentration
Cc1cc(=O)oc2cc(OCCOCC(=O)N3CC([N+](=O)[O-])([N+](=O)[O-])C3)ccc12	82.5 to 84.5 °C	–	–	–
Cc1c(Cc2ccc(F)cc2)c(=O)oc2cc(OCCOCC(=O)N3CC([N+](=O)[O-])([N+](=O)[O-])C3)ccc12 [Compound 4, 7-(2-(2-(3,3-Dinitroazetidin-1-yl)-2-oxoethoxy)ethoxy)-3-(4-fluorobenzyl)-4-methyl-2H-chromen-2-one]	70 to 71.9 °C	890 nM	0.86 fold of RRx-001	–
Cc1cc(=O)oc2cc(OCCN3CC([N+](=O)[O-])([N+](=O)[O-])C3)ccc12	91 to 93 °C	–	–	–
Cc1c(Cc2ccc(C(F)(F)F)cc2)c(=O)oc2cc(OCCOCC(=O)N3CC([N+](=O)[O-])([N+](=O)[O-])C3)ccc12 [Compound 2, 7-(2-(2-(3,3-Dinitroazetidin-1-yl)-2-oxoethoxy)ethoxy)-4-methyl-3-(4-(trifluoromethyl)benzyl)-2H-chromen-2-one]	65.3 to 67 °C	1110 nM	0.95 fold of RRx-001	–
Cc1c(Cc2ccccc2)c(=O)oc2cc(OCCOCC(=O)N3CC([N+](=O)[O-])([N+](=O)[O-])C3)ccc12 [Compound 5, 3-Benzyl-7-(2-(2-(3,3-dinitroazetidin-1-yl)-2-oxoethoxy)ethoxy)-4-methyl-2H-chromen-2-one]	82.5 to 84.5 °C	710 nM	0.83 fold of RRx-001	–
O=C(CBr)N1CC([N+](=O)[O-])([N+](=O)[O-])C1 [RRx-001, reference compound]	–	2000 nM	1 fold of RRx-001	–
